Reference: patent US5795858A, “Treatment or prevention of Crohn's disease and/or ulcerative colitis” (Peptide Technology Limited, priority 1993, dated 1998)
Entries after “also recorded” stand apart in the source; their conditions may differ.

System: TNBS colitis
Assay: TNBS colitis in rats, 2 week series, once daily s.c. treatment
Format: in vivo, Male Sprague-Dawley rats
Method: Treatment was continued on a once daily basis for the following 14 or 28 days. On day 14 (2 week series) or 28 (4 week series), animals were weighed and anaesthetised with pentobarbital. A cardiac puncture was performed to obtain a sample of peripheral blood for the determination of total white blood cell count (WBC) using a coulter counter, and differential count. A midline laparotomy was then performed and the colon exposed and excised. The colon was then opened longitudinally and rinsed clear of […] material. The severity of colonic mucosal injury, diarrhoea, and adhesions was then scored by an observer unaware of the treatment group of the animals using the attached criteria. The length (in cm) and weight of each colonic segment was then determined to allow the determination of the colonic weight/length ratio (as an index of intramural edema and/or fibrosis). Samples of tissue were then taken for biochemical determination of tissue myeloperoxidase (MPO) activity, as an index of granulocyte accumulation using standard biochemical techniques. Samples of tissue were also taken and fixed for subsequent processing for histopathological examination. Differences between the different treatment groups were analysed using either one way analysis of variance (body weight, WBC counts, colonic weight/length ratio, […] activity) or the non-parametric equivalent Kruskall-Wallis test (semiquantitive grading of severity of mucosal injury, adhesions, or diarrhoea). Significance of differences between individual pairs of treatment groups were then assessed using post hoc Tukey's test for parametric data and Dunn's multiple comparison test for non-parametric data. […]

Molecule	total WBC counts (5 mg/kg once daily s.c. for 2 weeks, vs TNBS colitis animals receiving vehicle, p 0.06-0.07, FIG. 1)	severity of colonic adhesions (5 mg/kg once daily s.c., 2 weeks, FIG. 4)	TNBS colitis-associated changes in body weight (weight gain) (5 mg/kg once daily s.c., 2 weeks, initial vs final body weight, FIG. 2)	colonic weight/length ratio (index of colonic edema) (5 mg/kg once daily s.c., 2 weeks, pattern compared with adhesions (no significant reduction, trend towards reduction), FIG. 5)	colonic myeloperoxidase activity (index of granulocyte accumulation) (5 mg/kg once daily s.c., 2 weeks, pattern compared with adhesions (no significant reduction, trend towards reduction), FIG. 7)	TNBS colitis-associated changes in body weight (weight gain) (rat, in vivo)	colonic myeloperoxidase activity (index of granulocyte accumulation) (rat, in vivo)	colonic weight/length ratio (index of colonic edema) (rat, in vivo)	reducing failure to thrive/lack of weight gain (rat, in vivo)	reducing the severity of the leukocytosis (rat, in vivo)	severity of colonic adhesions (rat, in vivo)	severity of mucosal injury (semiquantitative grading scale) (rat, in vivo)	total WBC counts (rat, in vivo)
C[C@]12C=CC(=O)C=C1CC[C@@H]1[C@@H]2C(=O)C[C@@]2(C)[C@H]1CC[C@]2(O)C(=O)CO [prednisone, reference compound]	reductions in total WBC counts	general trend towards reduction of adhesions	increased weight gains in animals with colitis, with this becoming significant (p<0.05)	Virtually identical patterns	Virtually identical patterns	–	–	–	–	–	–	–	–
D--Ala--Ser--Thr--Thr--Thr--Asn--Tyr--Thr--NH2 [Peptide T]	–	–	–	–	–	increased weight gains in animals with colitis, with this becoming significant (p<0.05); also recorded: approaching significance (p values of 0.06 to 0.08)	Virtually identical patterns	Virtually identical patterns	comparable to prednisone	comparable to prednisone	general trend towards reduction of adhesions	may have marginally reduced the severity of mucosal injury	reductions in total WBC counts
